Article PMC9090415, “Discovery of small molecule inhibitors of Plasmodium falciparum apicoplast DNA polymerase” (Journal of Enzyme Inhibition and Medicinal Chemistry, 2022)

Target: T1, bacteriophage T4 DNA polymerase (Enterobacteria phage T4, UniProt P04415)
T1 construct: made in house
T1 sequence (P04415 1-898): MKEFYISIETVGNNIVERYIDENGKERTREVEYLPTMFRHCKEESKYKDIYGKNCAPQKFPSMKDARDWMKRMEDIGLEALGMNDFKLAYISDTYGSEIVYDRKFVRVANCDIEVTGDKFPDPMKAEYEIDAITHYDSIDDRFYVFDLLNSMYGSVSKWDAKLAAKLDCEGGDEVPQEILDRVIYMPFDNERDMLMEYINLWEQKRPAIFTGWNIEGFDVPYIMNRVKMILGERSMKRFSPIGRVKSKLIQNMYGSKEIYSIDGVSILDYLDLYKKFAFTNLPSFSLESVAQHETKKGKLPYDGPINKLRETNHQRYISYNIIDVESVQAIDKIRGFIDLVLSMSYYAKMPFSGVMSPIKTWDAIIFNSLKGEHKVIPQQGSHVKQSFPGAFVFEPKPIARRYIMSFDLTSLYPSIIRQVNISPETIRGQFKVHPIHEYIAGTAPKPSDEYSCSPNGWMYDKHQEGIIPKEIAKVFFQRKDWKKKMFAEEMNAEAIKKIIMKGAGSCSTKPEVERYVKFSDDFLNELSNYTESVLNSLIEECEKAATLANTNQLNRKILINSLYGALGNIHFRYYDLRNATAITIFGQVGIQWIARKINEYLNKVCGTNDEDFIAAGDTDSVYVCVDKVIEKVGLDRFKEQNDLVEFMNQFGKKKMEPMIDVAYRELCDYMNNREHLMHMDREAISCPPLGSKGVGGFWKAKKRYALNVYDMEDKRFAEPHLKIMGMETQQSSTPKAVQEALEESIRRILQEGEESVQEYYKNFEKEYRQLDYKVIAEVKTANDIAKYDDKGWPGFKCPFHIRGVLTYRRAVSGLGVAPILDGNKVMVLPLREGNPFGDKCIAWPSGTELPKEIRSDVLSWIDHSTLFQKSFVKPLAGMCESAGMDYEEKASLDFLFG
Assay: Counter-screen against bacteriophage T4 DNA polymerase
Type: biochemical
Details: for % inhibition T4 10' 2.5 / % inhibition T4 10' 5 / % inhibition T4 10' 10 / % inhibition T4 10' 20 / % inhibition T4 10' 40 / % inhibition T4 10' 80: read at 10'
Outline: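 IC50 values come from dose-response testing of each compound against T4 DNA polymerase. This B-family polymerase was purified in-house and used as the counter-screen.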

In the case of CCOC(=O)C1=C2c3cc(OC)c(OC)cc3CC(C)(C)N2C(=O)C1=O [KU0193659], the “% inhibition T4 10'” value (DRC-2, concentration 2.5) is reported as 9%, the “% inhibition T4 10'” value (DRC-2, concentration 5) is reported as 6.54% and the “% inhibition T4 10'” value (DRC-2, concentration 10) is reported as 23%. For the same molecule, the “% inhibition T4 10'” value (DRC-2, concentration 20) was 29%, the “% inhibition T4 10'” value (DRC-2, concentration 40) was 38% and the “% inhibition T4 10'” value (DRC-2, concentration 80) was 45%. The “% inhibition T4 40'” value (DRC-2, concentration 2.5) was 9%, the “% inhibition T4 40'” value (DRC-2, concentration 5) was 6.54% and the “% inhibition T4 40'” value (DRC-2, concentration 10) was 23%. The “% inhibition T4 40'” value (DRC-2, concentration 20) was 29%, the “% inhibition T4 40'” value (DRC-2, concentration 40) was 38% and the “% inhibition T4 40'” value (DRC-2, concentration 80) was 45%. For the same molecule, the “% inhibition T4 90'” value (DRC-2, concentration 2.5) was 8%, the “% inhibition T4 90'” value (DRC-2, concentration 40) was 37% and the “% inhibition T4 90'” value (DRC-2, concentration 80) was 44%. For the same molecule, the “% inhibition T4 180'” value (DRC-2, concentration 2.5) was 9%, the “% inhibition T4 180'” value (DRC-2, concentration 5) was 8% and the “% inhibition T4 180'” value (DRC-2, concentration 40) was 37%. The “% inhibition T4 180'” value (DRC-2, concentration 80) was 44%.
With COc1ccc(-c2n[nH]cc2Oc2ccc(Cl)cc2)c(O)c1 [KU0029837] the “% inhibition T4 10'” value (DRC-2, concentration 2.5) was -22%, the “% inhibition T4 10'” value (DRC-2, concentration 5) was -28% and the “% inhibition T4 10'” value (DRC-2, concentration 10) was -25%. For the same molecule, the “% inhibition T4 10'” value (DRC-2, concentration 20) was -25%, the “% inhibition T4 10'” value (DRC-2, concentration 40) was -19% and the “% inhibition T4 10'” value (DRC-2, concentration 80) was -34%. The “% inhibition T4 40'” value (DRC-2, concentration 2.5) was -22%, the “% inhibition T4 40'” value (DRC-2, concentration 5) was -28% and the “% inhibition T4 40'” value (DRC-2, concentration 10) was -25%. For the same molecule, the “% inhibition T4 40'” value (DRC-2, concentration 20) was -25%, the “% inhibition T4 40'” value (DRC-2, concentration 40) was -19% and the “% inhibition T4 40'” value (DRC-2, concentration 80) was -34%. For the same molecule, the “% inhibition T4 90'” value (DRC-2, concentration 2.5) was -22%, the “% inhibition T4 90'” value (DRC-2, concentration 10) was -26% and the “% inhibition T4 90'” value (DRC-2, concentration 20) was -25%. For the same molecule, the “% inhibition T4 90'” value (DRC-2, concentration 80) was -34%, the “% inhibition T4 180'” value (DRC-2, concentration 2.5) was -26% and the “% inhibition T4 180'” value (DRC-2, concentration 10) was -30%. For the same molecule, the “% inhibition T4 180'” value (DRC-2, concentration 20) was -30%.
With CC1(C)CC(=O)C2=C(C1)OC1=C(C(=O)CC(C)(C)C1)C2c1ccc(O)cc1 [KU0194226] the “% inhibition T4 10'” value (DRC-2, concentration 40) was 18%, the “% inhibition T4 40'” value (DRC-2, concentration 5) was 17% and the “% inhibition T4 40'” value (DRC-2, concentration 10) was 18%. For the same molecule, the “% inhibition T4 40'” value (DRC-2, concentration 40) was 12%, the “% inhibition T4 40'” value (DRC-2, concentration 80) was 30% and the “% inhibition T4 90'” value (DRC-2, concentration 10) was 17%. The “% inhibition T4 90'” value (DRC-2, concentration 40) was 12%, the “% inhibition T4 90'” value (DRC-2, concentration 80) was 30% and the “% inhibition T4 180'” value (DRC-2, concentration 2.5) was 18%. For the same molecule, the “% inhibition T4 180'” value (DRC-2, concentration 5) was 12%, the “% inhibition T4 180'” value (DRC-2, concentration 40) was 12% and the “% inhibition T4 180'” value (DRC-2, concentration 80) was 30%.
In the case of Cl.NC(CO)C(=O)NNCc1ccc(O)c(O)c1O (stereo not drawn) [KU0260493], the “% inhibition T4 10'” value (DRC-2, concentration 2.5) is reported as -17%, the “% inhibition T4 10'” value (DRC-2, concentration 10) is reported as -11% and the “% inhibition T4 90'” value (DRC-2, concentration 2.5) is reported as -11%. For the same molecule, the “% inhibition T4 180'” value (DRC-2, concentration 5) was -17%.
O=C(NC(C(Cl)Cl)S(=O)(=O)c1ccccc1)c1ccccc1 (stereo not drawn) [KU0045239] was tested, and the “% inhibition T4 10'” value (DRC-2, concentration 10) was -19%, the “% inhibition T4 40'” value (DRC-2, concentration 5) was -21% and the “% inhibition T4 40'” value (DRC-2, concentration 10) was -19%. For the same molecule, the “% inhibition T4 40'” value (DRC-2, concentration 20) was -26%, the “% inhibition T4 40'” value (DRC-2, concentration 40) was -26% and the “% inhibition T4 90'” value (DRC-2, concentration 2.5) was -26%. For the same molecule, the “% inhibition T4 90'” value (DRC-2, concentration 5) was -17%, the “% inhibition T4 90'” value (DRC-2, concentration 20) was -18% and the “% inhibition T4 90'” value (DRC-2, concentration 40) was -18%. The “% inhibition T4 180'” value (DRC-2, concentration 5) was -21%, the “% inhibition T4 180'” value (DRC-2, concentration 10) was -18% and the “% inhibition T4 180'” value (DRC-2, concentration 20) was -17%.
For Cc1nc(C)c2c(n1)N(CC1CCCCC1)C(=O)CC2 [KU0218606], the “% inhibition T4 10' 2.5” value (DRC-1, concentration 2.5) was -4.605%, the “% inhibition T4 10' 5” value (DRC-1, concentration 5) was -3.989% and the “% inhibition T4 10' 10” value (DRC-1, concentration 10) was -2.764%. For the same molecule, the “% inhibition T4 10' 20” value (DRC-1, concentration 20) was -3.758%, the “% inhibition T4 10' 40” value (DRC-1, concentration 40) was -2.983% and the “% inhibition T4 10' 80” value (DRC-1, concentration 80) was -2.366%. The “% inhibition T4 70' 2.5” value (DRC-1, read at 70', concentration 2.5) was -6.824%, the “% inhibition T4 70' 5” value (DRC-1, read at 70', concentration 5) was -8.391% and the “% inhibition T4 70' 10” value (DRC-1, read at 70', concentration 10) was -4.959%. The “% inhibition T4 70' 20” value (DRC-1, read at 70', concentration 20) was -8.03%, the “% inhibition T4 70' 40” value (DRC-1, read at 70', concentration 40) was -3.675% and the “% inhibition T4 70' 80” value (DRC-1, read at 70', concentration 80) was -5.307%. For the same molecule, the “% inhibition T4 130' 2.5” value (DRC-1, read at 130', concentration 2.5) was -8.748%, the “% inhibition T4 130' 5” value (DRC-1, read at 130', concentration 5) was -10.3586% and the “% inhibition T4 130' 10” value (DRC-1, read at 130', concentration 10) was -7.013%. For the same molecule, the “% inhibition T4 130' 20” value (DRC-1, read at 130', concentration 20) was -9.978%, the “% inhibition T4 130' 40” value (DRC-1, read at 130', concentration 40) was -5.652% and the “% inhibition T4 130' 80” value (DRC-1, read at 130', concentration 80) was -8.474%. The “% inhibition T4 10' 2.5” value (DRC-2, concentration 2.5) was 4%, the “% inhibition T4 10' 5” value (DRC-2, concentration 5) was 4.39% and the “% inhibition T4 10' 10” value (DRC-2, concentration 10) was 6%. The “% inhibition T4 10' 20” value (DRC-2, concentration 20) was 5.27%, the “% inhibition T4 10' 40” value (DRC-2, concentration 40) was 12% and the “% inhibition T4 10' 80” value (DRC-2, concentration 80) was 12%. For the same molecule, the “% inhibition T4 40' 2.5” value (DRC-2, read at 40', concentration 2.5) was 4%, the “% inhibition T4 40' 5” value (DRC-2, read at 40', concentration 5) was 4.39% and the “% inhibition T4 40' 10” value (DRC-2, read at 40', concentration 10) was 6%. The “% inhibition T4 40' 20” value (DRC-2, read at 40', concentration 20) was 5.27%, the “% inhibition T4 40' 40” value (DRC-2, read at 40', concentration 40) was 12% and the “% inhibition T4 40' 80” value (DRC-2, read at 40', concentration 80) was 12%. For the same molecule, the “% inhibition T4 90' 2.5” value (DRC-2, read at 90', concentration 2.5) was 4%, the “% inhibition T4 90' 5” value (DRC-2, read at 90', concentration 5) was 5% and the “% inhibition T4 90' 10” value (DRC-2, read at 90', concentration 10) was 7%. The “% inhibition T4 90' 20” value (DRC-2, read at 90', concentration 20) was 7%, the “% inhibition T4 90' 40” value (DRC-2, read at 90', concentration 40) was 11% and the “% inhibition T4 90' 80” value (DRC-2, read at 90', concentration 80) was 11%. For the same molecule, the “% inhibition T4 180' 2.5” value (DRC-2, read at 180', concentration 2.5) was -0.169%, the “% inhibition T4 180' 5” value (DRC-2, read at 180', concentration 5) was 0.674% and the “% inhibition T4 180' 10” value (DRC-2, read at 180', concentration 10) was 3%. For the same molecule, the “% inhibition T4 180' 20” value (DRC-2, read at 180', concentration 20) was 2%, the “% inhibition T4 180' 40” value (DRC-2, read at 180', concentration 40) was 8% and the “% inhibition T4 180' 80” value (DRC-2, read at 180', concentration 80) was 8%.
With O=C(Cc1cc(=O)[nH]c(SCc2ccccc2)n1)Nc1ccc2c(c1)OCO2 [Molecule 46, O=C(Cc1cc(=O)[nH]c(n1)SCc1ccccc1)Nc1ccc2c(c1)OCO2] the “% inhibition T4 10'” value (DRC-2, concentration 2.5) was -13%, the “% inhibition T4 10'” value (DRC-2, concentration 40) was 9% and the “% inhibition T4 10'” value (DRC-2, concentration 80) was 6%. For the same molecule, the “% inhibition T4 40'” value (DRC-2, concentration 2.5) was -13%, the “% inhibition T4 40'” value (DRC-2, concentration 40) was 9% and the “% inhibition T4 40'” value (DRC-2, concentration 80) was 6%. The “% inhibition T4 90'” value (DRC-2, concentration 10) was 4%, the “% inhibition T4 90'” value (DRC-2, concentration 40) was 9% and the “% inhibition T4 180'” value (DRC-2, concentration 40) was 4%.
